Values of other authors as cited in patent US8071602B2, “Piperidine and piperazine derivatives” (M's Science Corporation, priority 2005, dated 2011).

System: rats
Details: microinjection

Row | SMILES | neck dystonia
1 | Cc1ccccc1NC(=N)Nc1ccccc1C [DTG, 1,3-di-2-tolyl-guanidine] | induced neck dystonia
2 | COc1ccc(CCN2CCN(CCCc3ccccc3)CC2)cc1OC [SA-4503, 1-[2-(3,4-dimethoxyphenyl)ethyl]-4-(3-phenylpropyl)piperazine] | no effect
